Measured values as given in ChEMBL document CHEMBL4699579, “A Peptidyl Inhibitor that Blocks Calcineurin-NFAT Interaction and Prevents Acute Lung Injury” (J Med Chem, 2020).
Active and inactive are the calls of the source. No cut-off for these calls is given here. Positions of bridges follow the written chain, without caps; N, C: chain ends. Non-standard residues stand in square brackets, D forms with d. Residues, ends and D or L forms follow the SMILES beside them. Chains are numbered I, II in the order given. *: point of attachment. 2Nal = N[C@@H](Cc1ccc2ccccc2c1)C(=O)O; Val(3-OH) = CC(C)(O)[C@H](N)C(=O)O; Tle = CC(C)(C)[C@H](N)C(=O)O; X1 = O=C(c1ccnc(Cl)c1Cl)*; AEEA = NCCOCCOCC(=O)O

How the values were obtained:
[1] = Drug concentration in BALB/c mouse spleen at 5 mg/kg, iv after 8 hrs by LC-MS/MS analysis; type: ADME, organism-based; settings: read-out: Drug uptake
Mus musculus [2] = assay: Anti-inflammatory activity in BALB/c mouse model of LPS-induced ALI assessed as reduction in LPS-induced lung wet-to-dry ratios at 5 mg/kg, iv pre-treated 4 hrs before LPS stimulation for 16 hrs; type: functional, organism-based; settings: time 20.0 hrs
[3] = Drug distribution in BALB/c mouse plasma at 0.6 mg/kg, iv using compound labelled with cyanine-5 measured after 24 hrs by fluorescence based assay; type: ADME, organism-based; settings: in vivo
[4] = Drug distribution in BALB/c mouse monocytes at 0.6 mg/kg, iv using compound labelled with cyanine-5 measured after 24 hrs by flow cytometry; type: ADME, organism-based, Monocyte; settings: in vivo
[5] = Drug distribution in BALB/c mouse muscle at 0.6 mg/kg, iv using compound labelled with cyanine-5 measured after 24 hrs by fluorescence based assay; type: ADME, organism-based, Muscle tissue; settings: in vivo
[6] = Drug distribution in BALB/c mouse lymph nodes at […], sc using compound labelled with cyanine-5 measured after 24 hrs by fluorescence based assay; type: ADME, organism-based, Lymph node; settings: dose 2.4 mg/kg, read-out: Drug uptake
[7] = Drug distribution in BALB/c mouse lymph nodes at […], ip using compound labelled with cyanine-5 measured after 24 hrs by fluorescence based assay; type: ADME, organism-based, Lymph node; settings: dose 2.4 mg/kg, read-out: Drug uptake
HeLa = assay: Toxicity in human HeLa cells assessed as reduction in cell viability up to 25 uM incubated for 72 hrs by MTT assay; type: cell-based
[8] = Drug distribution in BALB/c mouse muscle at […], sc using compound labelled with cyanine-5 measured after 24 hrs by fluorescence based assay; type: ADME, organism-based, Muscle tissue; settings: in vivo, dose 2.4 mg/kg
Mus musculus [9] = assay: Anti-inflammatory activity in BALB/c mouse model of LPS-induced ALI assessed as effect on LPS-induced TNFalpha in kidney at 5 mg/kg, iv pre-treated 4 hrs before LPS stimulation for 16 hrs; type: functional, organism-based; settings: time 20.0 hrs
Homo sapiens = species on record: Homo sapiens; assay: Inhibition of GST-tagged Calcineurin (unknown origin) assessed as reduction in phosphatase activity at 50 uM incubated for 30 mins using p-nitrophenyl phosphate substrate
[10] = Drug distribution in BALB/c mouse plasma at […], ip using compound labelled with cyanine-5 measured after 24 hrs by fluorescence based assay; type: ADME, organism-based; settings: in vivo, dose 2.4 mg/kg
[11] = Drug distribution in BALB/c mouse pancreas at […], ip using compound labelled with cyanine-5 measured after 24 hrs by fluorescence based assay; type: ADME, organism-based; settings: dose 2.4 mg/kg, read-out: Drug uptake
Mus musculus [12] = assay: Anti-inflammatory activity in BALB/c mouse model of LPS-induced ALI assessed as reduction in LPS-induced TNFalpha in BALF at 5 mg/kg, iv pre-treated 4 hrs before LPS stimulation for 16 hrs; type: functional, organism-based; settings: time 20.0 hrs
[13] = Drug distribution in BALB/c mouse kidney at […], sc using compound labelled with cyanine-5 measured after 24 hrs by fluorescence based assay; type: ADME, organism-based; settings: in vivo, dose 2.4 mg/kg
[14] = Drug distribution in BALB/c mouse plasma at […], sc using compound labelled with cyanine-5 measured after 24 hrs by fluorescence based assay; type: ADME, organism-based; settings: in vivo, dose 2.4 mg/kg
[15] = Drug distribution in BALB/c mouse spleen at […], ip using compound labelled with cyanine-5 measured after 24 hrs by fluorescence based assay; type: ADME, organism-based; settings: in vivo, dose 2.4 mg/kg
[16] = Drug distribution in BALB/c mouse spleen at 0.6 mg/kg, iv using compound labelled with cyanine-5 measured after 24 hrs by fluorescence based assay; type: ADME, organism-based; settings: in vivo
[17] = Drug distribution in BALB/c mouse Non-T and B lymphocytes at […], ip using compound labelled with cyanine-5 measured after 24 hrs by flow cytometry; type: ADME, organism-based, Lymphocyte; settings: in vivo, dose 2.4 mg/kg
[18] = Stability in mouse liver microsomes assessed as compound degradation at 100 uM after 1 hr in presence of NADPH by LC-MS/MS analysis; type: ADME, Microsome; settings: read-out: Drug degradation
[19] = Drug distribution in BALB/c mouse pancreas at […], sc using compound labelled with cyanine-5 measured after 24 hrs by fluorescence based assay; type: ADME, organism-based; settings: dose 2.4 mg/kg, read-out: Drug uptake
[20] = Drug distribution in BALB/c mouse neutrophils at […], ip using compound labelled with cyanine-5 measured after 24 hrs by flow cytometry; type: ADME, organism-based, Neutrophil; settings: in vivo, dose 2.4 mg/kg
[21] = Drug metabolism in BALB/c mouse liver at 5 mg/kg, iv after 8 hrs by LC-MS/MS analysis; type: ADME, organism-based; settings: in vivo
[22] = Drug distribution in BALB/c mouse monocytes at […], sc using compound labelled with cyanine-5 measured after 24 hrs by flow cytometry; type: ADME, organism-based, Monocyte; settings: in vivo, dose 2.4 mg/kg
Mus musculus [23] = assay: Anti-inflammatory activity in BALB/c mouse model of LPS-induced ALI assessed as reduction in LPS-induced BALF protein levels at 5 mg/kg, iv pre-treated 4 hrs before LPS stimulation for 16 hrs; type: functional, organism-based; settings: time 20.0 hrs
Mus musculus [24] = assay: Anti-inflammatory activity in BALB/c mouse model of LPS-induced ALI assessed as reduction in LPS-induced IL6 in BALF at 3 mg/kg dosed via intranasal instillation pre-treated 2 hrs before LPS stimulation for 6 hrs and measured at 24 hrs; type: functional, organism-based
[25] = Drug distribution in BALB/c mouse liver at 0.6 mg/kg, iv using compound labelled with cyanine-5 measured after 24 hrs by fluorescence based assay; type: ADME, organism-based; settings: in vivo
[26] = Drug distribution in BALB/c mouse lymph nodes at 0.6 mg/kg, iv using compound labelled with cyanine-5 measured after 24 hrs by fluorescence based assay; type: ADME, organism-based, Lymph node; settings: read-out: Drug uptake
[27] = Drug distribution in BALB/c mouse lung at 0.6 mg/kg, iv using compound labelled with cyanine-5 measured after 24 hrs by fluorescence based assay; type: ADME, organism-based; settings: read-out: Drug uptake
Macrophage = assay: Inhibition of calcineurin-NFATc3 interaction in mouse lung macrophages assessed as reduction in LPS-induced TNFalpha production at 0.1 to 10 uM pre-incubated 4 hrs before LPS stimulation for 8 hrs by ELISA; type: tissue-based; settings: DISRUPTING AGENT, dose microM 0.1-10, time 12.0 hrs
[28] = Stability in mouse liver microsomes assessed as compound degradation at 100 uM incubated up to 60 mins in presence of NADPH by LC-MS/MS analysis; type: ADME, Microsome; settings: 1 h, TDE = time-dependent effect
[29] = Stability in human HCT-116 cells spheroids assessed as compound degradation at 5 uM incubated for 24 hrs by MALDI-TOF-TOF mass spectrometry; type: ADME, cell-based; settings: hct-116, 24 h
Mus musculus [30] = assay: Anti-inflammatory activity in BALB/c mouse model of LPS-induced ALI assessed as reduction in LPS-induced TNFalpha in BALF at 3 mg/kg dosed via intranasal instillation pre-treated 2 hrs before LPS stimulation for 6 hrs and measured at 24 hrs; type: functional, organism-based
[31] = Drug distribution in BALB/c mouse liver at […], ip using compound labelled with cyanine-5 measured after 24 hrs by fluorescence based assay; type: ADME, organism-based; settings: in vivo, dose 2.4 mg/kg
Mus musculus [32] = assay: Anti-inflammatory activity in BALB/c mouse model of LPS-induced ALI assessed as reduction in LPS-induced TNFalpha in lung at 5 mg/kg, iv pre-treated 4 hrs before LPS stimulation for 16 hrs; type: functional; settings: time 20 hrs
[33] = Drug distribution in BALB/c mouse Non-T and B lymphocytes at 0.6 mg/kg, iv using compound labelled with cyanine-5 measured after 24 hrs by flow cytometry; type: ADME, organism-based, Lymphocyte; settings: in vivo
[34] = Stability in mouse hepatocytes at 2 uM incubated up to 90 mins by LC/MS/MS analysis; type: ADME, cell-based, Hepatocyte

## CC[C@H](C)[C@H](NC(=O)[C@@H](NC(=O)c1ccnc(Cl)c1Cl)C(C)(C)C)C(=O)N[C@H](C(=O)N[C@H](C(=O)N[C@H](C(=O)N[C@@H](CCC(N)=O)C(=O)N[C@@H](Cc1c[nH]cn1)C(=O)N[C@H](CC(C)C)C(=O)N[C@@H](CO)C(=O)NCCOCCOCC(=O)N[C@@H](CCCCNC(=O)CC[C@@H]1NC(=O)[C@@H](CCCNC(=N)N)NC(=O)[C@H](CCCNC(=N)N)NC(=O)[C@@H](CCCNC(=N)N)NC(=O)[C@H](CCCNC(=N)N)NC(=O)[C@H](Cc2ccc3ccccc3c2)NC(=O)[C@@H](Cc2ccccc2)NC1=O)C(N)=O)[C@@H](C)O)[C@@H](C)CC)C(C)(C)O (I: X1-[Tle]I[Val(3-OH)]ITQH[dL]S[AEEA]K-NH2 / II: cyclo([2Nal]R[dR]R[dR]E[dF]); amide I:11-II:6)
[1]
  concentration at 8 h: 15 nM
Mus musculus [2]
  Activity: Active
[3]
  Drug uptake: Not Active
[4]
  Drug uptake: Active
[5]
  Drug uptake: Not Active
[6]
  concentration at 24 h: > 50 nM
[7]
  concentration at 24 h: > 50 nM
HeLa
  Activity: Non-Toxic
[8]
  Drug uptake: Not Active
Mus musculus [9]
  Activity: inactive
Homo sapiens
  inhibition: inactive
[10]
  Drug uptake: Not Active
[11]
  concentration at 24 h: > 50 nM
Mus musculus [12]
  Activity: Active
[13]
  Drug uptake: Active
[14]
  Drug uptake: Not Active
[15]
  Drug uptake: Active
[16]
  Drug uptake: Active
[17]
  Drug uptake: Active
[18]
  metabolised at 1 h, 100 µM: ≤ 25%
[19]
  concentration at 24 h: > 50 nM
[20]
  Drug uptake: Active
[21]
  Drug metabolism: Metabolite_Detected
[22]
  Drug uptake: Active
Mus musculus [23]
  Activity: Active
Mus musculus [24]
  Activity: inactive
[25]
  Drug uptake: Active
[26]
  concentration at 24 h: > 50 nM
[27]
  concentration at 24 h: > 50 nM
Macrophage
  inhibition: Dose-dependent effect
[28]
  Drug degradation: Tde
[29]
  Stabilty: Stable
Mus musculus [30]
  Activity: inactive
[31]
  Drug uptake: Active
Mus musculus [32]
  inhibition in vivo at 5 mg/kg: 100%
[33]
  Drug uptake: Active
[34]
  Stabilty: Stable
